The source made the active and inactive calls. The calls are words filed in the database; no cut-off is given here.
Legend:
[1] = system: Syrian golden hamster; experiment: Anti-obesity activity in high-fat diet induced Syrian golden hamster model assessed as reduction in weight gain at 50 mg/kg, po administered for 7 days and measured daily; assay type: functional, organism-based; details: Mesocricetus auratus, time 7.0 day
[2] = system: 3T3-L1; experiment: Anti-adipogenic activity in MDI-cocktail differentiated mouse 3T3-L1 pre-adipocyte cells assessed as reduction in adipogenic differentiation at 5 uM measured after 0 to 5 days by Oil Red O staining based microscopic analysis; assay type: functional, cell-based; details: time 0-5 day
[3] = system: 3T3-L1; experiment: Induction of cell cycle arrest in MDI-cocktail differentiated mouse 3T3-L1 pre-adipocyte cells assessed as accumulation of cells at S phase at 3 to 5 uM incubated for 24 hrs by propidium iodide staining based flow cytometry analysis; assay type: functional; details: dose 3-5 µM
[4] = system: Syrian golden hamster; experiment: Anti-dyslipidaemic activity in high-fat diet induced Syrian golden hamster model assessed as assessed as increase in serum HDL level at 25 to 50 mg/kg, po administered for 7 days; assay type: functional, organism-based; details: Mesocricetus auratus, dose 25-50 mg/kg, time 7.0 day
[5] = system: 3T3-L1; experiment: Inhibition of MDI-cocktail induced adipogenic differentiation in mouse 3T3-L1 pre-adipocyte cells assessed as reduction in FABP4 protein expression at 0.5 to 5 uM by Western blot analysis; assay type: functional, cell-based; details: dose 0.5-5 µM
[6] = system: 3T3-L1; experiment: Anti-adipogenic activity in MDI-cocktail differentiated mouse 3T3-L1 pre-adipocyte cells assessed as reduction in adipogenic differentiation at 5 uM measured after 3 to 7 days by Oil Red O staining based microscopic analysis; assay type: functional, cell-based; details: time 3-7 day
[7] = system: 3T3-L1; experiment: Cytotoxicity against mouse 3T3-L1 pre-adipocyte cells assessed as reduction in cell viability >20 uM incubated for 48 hrs by MTT assay; assay type: toxicity, cell-based; details: 3t3-l1, 48 h
[8] = system: 3T3-L1; experiment: Induction of proton leak during early phase in MDI-cocktail differentiated mouse 3T3-L1 pre-adipocyte cells 5 uM incubated for 72 hrs by Seahorse XFp flux analyzer; assay type: functional, cell-based
[9] = system: C3H 10T1/2; experiment: Inhibition of MDI-cocktail induced adipogenic differentiation in mouse C3H 10T1/2 cells assessed as reduction in lipid bound stain absorbance at 0.5 to 25 uM by Oil Red O staining based microscopic analysis; assay type: functional, cell-based; details: dose 0.5-25 µM
[10] = system: 3T3-L1; experiment: Induction of ATP production during early phase in MDI-cocktail differentiated mouse 3T3-L1 pre-adipocyte cells 5 uM incubated for 72 hrs by Seahorse XFp flux analyzer; assay type: functional, cell-based
[11] = system: 3T3-L1; experiment: Anti-adipogenic activity in MDI-cocktail differentiated mouse 3T3-L1 pre-adipocyte cells assessed as inhibition of adipogenesis at 20 uM by Oil Red O staining based microscopic analysis relative to control; assay type: functional
[12] = system: 3T3-L1; experiment: Inhibition of MDI-cocktail induced adipogenic differentiation in mouse 3T3-L1 pre-adipocyte cells assessed as reduction in lipid bound stain absorbance at 0.5 to 25 uM by Oil Red O staining based microscopic analysis; assay type: functional, cell-based; details: dose 0.5-25 µM
[13] = system: 3T3-L1; experiment: Inhibition of MDI-cocktail induced adipogenic differentiation in mouse 3T3-L1 pre-adipocyte cells assessed as reduction in C/EBPalpha protein expression at 0.5 to 5 uM by Western blot analysis; assay type: functional, cell-based; details: dose 0.5-5 µM
[14] = system: 3T3-L1; experiment: Upregulation of CIII-UQCRC2 protein expression in mouse 3T3-L1 mature adipocytes at 1 to 5 uM incubated for 24 hrs by Western blot analysis; assay type: functional, cell-based; details: dose 1-5 µM

Cc1ccc(-c2cnc(-c3ccc[n+](Cc4cccc(C)c4)c3)o2)cc1.[Br-]
Activity [1]: Active
Activity [2]: Active
Activity [3]: Active
Activity [4]: inactive
inhibition [5]: Active
Activity [6]: Active
Activity [7]: Non-Toxic
Activity [8]: Active
inhibition [9]: Active
Activity [10]: Active
inhibition at 20 µM [11]: > 70%
inhibition [12]: Active
inhibition [13]: Active
Activity [14]: Active

— ChEMBL document CHEMBL5634151, “Anti-adipogenic action of a novel oxazole derivative through activation of AMPK pathway” (Eur J Med Chem, 2023)
